Measurements reported in patent US9145405B2, “Oxadiazole compound and preparation method thereof, pharmaceutical composition and use thereof” (SHANGHAI JIAO TONG UNIVERSITY, priority 2011, dated 2015).
≈ marks a conversion by molar mass, not a printed value. Read-outs that look alike come from different tables or passages of the source.

Experiments:
Cox_B3 virus = test: Anti-Cox_B3 test: inhibition of cytopathic effect (CPE) in infected Vero cells, Reed-Muench; assay type: cell-based; details: for IC50: read-out: IC50 (half-inhibitory concentration for viruses)
Excerpt: The present examples verifies experimental results of anti-Cox_B3 of the compounds 1-137of the present invention, Pleconaril, 3-[3,5-dimethyl-4-[5-(3-methy-1,2-oxazolyl)propoxy]phenyl]-5-(trifluonomethyl) -1,2,4-oxadiazole is used as positive control.

Vero cells = test: Toxicity (half toxic concentration) in the anti-Cox_B3 test on Vero cells; assay type: cell-based
[1] = Cox_B3 virus in Vero cells, CPE, Reed-Muench method

Row | Compound | IC50 (half-inhibitory concentration for viruses) (Cox_B3 virus; [1]) [µg/mL] | TC50 (half of the toxic concentration) (Vero cells) [µg/mL] | TC50 (half of the toxic concentration) (Vero cells; Vero cells, Cox_B3) [µg/mL] | IC50 (Cox_B3 virus; [1]) [µg/mL] | IC50 (Cox_B3 virus; Vero) [µg/mL]
1 | 2-[2,6-dimethyl-4-[(5-(trifluoromethyl)-1,2,4-oxadiazole-3-yl)phenoxyl]ethoxyl]-3-fluoro-5-methylpyridine [Compound 47] | 0.082 | 39.56 |  |  | 
2 | 2-[2,6-dimethyl-4-[(5-(trifluoromethyl)-1,2,4-oxadiazole-3-yl)phenoxyl]ethoxyl]-3-fluoro-5-methylpyridine [Compound 101] | 0.078 | 37.35 |  |  | 
3 | 3-[2,6-dimethyl-4-[(5-(trifluoromethyl)-1,2,4-oxadiazole-3-yl)phenoxyl]ethoxyl]-6-methylpyridazine [Compound 56] | 0.20 | 22.22 |  |  | 
4 | 3-[2,6-dimethyl-4-[(5-(trifluoromethyl)-1,2,4-oxadiazole-3-yl)phenoxyl]ethoxyl]-6-methylpyridazine [Compound 110] | 0.28 | 36.89 |  |  | 
5 | 3-[2-(2,6-dimethyl-4-[(5-(trifluoromethyl)-1,2,4-oxadiazole-3-yl)phenoxyl]ethoxyl]-2-formamide-6-fluoropyrazine [Compound 55] | 0.16 |  | 36.66 |  | 
6 | 3-[2-(2,6-dimethyl-4-[(5-(trifluoromethyl)-1,2,4-oxadiazole-3-yl)phenoxyl]ethoxyl]-2-formamide-6-fluoropyrazine [Compound 109] | 0.13 |  | 48.21 |  | 
7 | 3-[2-[2,6-dimethyl-4-[5-(trifluoromethyl)-1,2,4-oxadiazole-3-yl]phenoxyl]ethoxyl]isoxazole-5-carboxylate [Compound 58] | 0.082 | 40.67 |  |  | 
8 | 3-[3,5-dimethyl-4-[2-(3-methyl-1,2,4-thiadiazole-5-thio)ethoxyl]phenyl]-5-(trifluoromethyl)-1,2,4-oxadiazole [Compound 23] | 0.12 | 39.78 |  |  | 
9 | 3-[3,5-dimethyl-4-[2-(3-methyl-1,2,4-thiadiazole-5-thio)ethoxyl]phenyl]-5-(trifluoromethyl)-1,2,4-oxadiazole [Compound 77] | 0.16 | 38.58 |  |  | 
10 | 3-[3,5-dimethyl-4-[2-(4-methylthiazole-2-thio)ethoxyl]phenyl]-5-(trifluoromethyl)-1,2,4-oxadiazole [Compound 14] | 0.11 | 40.58 |  |  | 
11 | 3-[3,5-dimethyl-4-[2-(4-methylthiazole-2-thio)ethoxyl]phenyl]-5-(trifluoromethyl)-1,2,4-oxadiazole [Compound 68] | 0.38 | 43.87 |  |  | 
12 | 3-[3,5-dimethyl-4-[2-(5-methyl-1H-imidazole-2-thio)ethoxyl]phenyl]-5-(trifluoromethyl)-1,2,4-oxadiazole [Compound 18] | 0.13 |  |  |  | 
13 | 3-[3,5-dimethyl-4-[(2-(cyclohexyloxy)-ethoxyl)phenyl]-5-(trifluoromethyl)-1,2,4-oxadiazole [Compound 35] | 0.08 |  | 36.78 |  | 
14 | 3-[3-[2,6-dimethyl-4-[5-(trifluoromethyl)-1,2,4-oxadiazole-3-yl]phenoxyl]propoxy]isoxazole-5-carboxylate [Compound 61] | 0.23 | 37.58 |  |  | 
15 | 4-[2,6-dimethyl-4-(5-(trifluoromethyl)-1,2,4-oxadiazole-3-yl) phenoxyl]ethoxyl]-2-hydroxy-5-fluoropyrimidine [Compound 107] | 0.085 | 33.82 |  |  | 
16 | 4-[2,6-dimethyl-4-[(5-(trifluoromethyl)-1,2,4-oxadiazole-3-yl)phenoxyl]ethoxyl]-2-hydroxyl-5-fluoropyrimidine [Compound 53] | 0.056 | 46.89 |  |  | 

Row | Compound | IC50 (half-inhibitory concentration for viruses) (Cox_B3 virus; [1]) [µg/mL] | TC50 (half of the toxic concentration) (Vero cells) [µg/mL] | TC50 (half of the toxic concentration) (Vero cells; Vero cells, Cox_B3) [µg/mL] | IC50 (Cox_B3 virus; [1]) [µg/mL] | IC50 (Cox_B3 virus; Vero) [µg/mL]
17 | 4-[2,6-dimethyl-4-[(5-(trifluoromethyl)-1,2,4-oxadiazole-3-yl)phenoxyl]ethoxyl]-2-methoxyl-5-fluoropyrimidine [Compound 54] | 0.067 | 43.15 |  |  | 
18 | 4-[2,6-dimethyl-4-[(5-(trifluoromethyl)-1,2,4-oxadiazole-3-yl)phenoxyl]ethoxyl]-2-methoxyl-5-fluoropyrimidine [Compound 108] | 0.078 | 47.58 |  |  | 
19 | 4-[2,6-dimethyl-4-[(5-(trifluoromethyl)-1,2,4-oxadiazole-3-yl)phenoxyl]ethoxyl]-3-fluorobenzonitrile [Compound 38] | 0.048 | 45.28 |  |  | 
20 | 4-[2,6-dimethyl-4-[(5-(trifluoromethyl)-1,2,4-oxadiazole-3-yl)phenoxyl]ethoxyl]-3-fluorobenzonitrile [Compound 92] | 0.18 | 43.78 |  |  | 
21 | 5-[2,6-dimethyl-4-[(5-(trifluoromethyl)-1,2,4-oxadiazole-3-yl)phenoxyl]ethoxyl]pyridine-2-oxy-ethylketoxime [Compound 45] | 0.10 |  | 32.28 |  | 
22 | 5-[2,6-dimethyl-4-[(5-(trifluoromethyl)-1,2,4-oxadiazole-3-yl)phenoxyl]ethoxyl]pyridine-2-oxy-ethylketoxime [Compound 99] | 0.083 |  | 37.81 |  | 
23 | 6-[2,6-dimethyl-4-[(5-(trifluoromethyl)-1,2,4-oxadiazole-3-yl)phenoxyl]ethoxyl]-3-cyanopyridine [Compound 50] | 0.087 | 36.88 |  |  | 
24 | 6-[2,6-dimethyl-4-[(5-(trifluoromethyl)-1,2,4-oxadiazole-3-yl)phenoxyl]ethoxyl]-3-cyanopyridine [Compound 104] | 0.082 | 37.56 |  |  | 
25 | 6-[2,6-dimethyl-4-[(5-(trifluoromethyl)-1,2,4-oxadiazole-3-yl)phenoxyl]ethoxyl]-5-fluoro-2-hydroxy-3-cyanopyridine [Compound 102] | 0.10 | 36.28 |  |  | 
26 | 6-[2,6-dimethyl-4-[(5-(trifluoromethyl)-1,2,4-oxadiazole-3-yl)phenoxyl]ethoxyl]-5-fluoro-2-hydroxyl-3-cyanopyridine [Compound 48] | 0.15 | 42.12 |  |  | 
27 | 6-[2,6-dimethyl-4-[(5-(trifluoromethyl)-1,2,4-oxadiazole-3-yl)phenoxyl]ethoxyl]-5-fluoro-3-cyanopyridine [Compound 46] | 0.088 | 38.58 |  |  | 
28 | 6-[2,6-dimethyl-4-[(5-(trifluoromethyl)-1,2,4-oxadiazole-3-yl)phenoxyl]ethoxyl]-5-fluoro-3-cyanopyridine [Compound 100] | 0.069 | 38.63 |  |  | 
29 | 6-[2,6-dimethyl-4-[(5-(trifluoromethyl)-1,2,4-oxadiazole-3-yl)phenoxyl]ethoxyl]-5-methylpyridine [Compound 51] | 0.078 | 40.58 |  |  | 
30 | 6-[2,6-dimethyl-4-[(5-(trifluoromethyl)-1,2,4-oxadiazole-3-yl)phenoxyl]ethoxyl]-5-methylpyridine [Compound 105] | 0.13 | 43.18 |  |  | 
31 | Cc1cc(-c2noc(C(F)(F)F)n2)cc(C)c1OCCCOc1cc(C(F)(F)F)no1 [Compound 9, 3-[3,5-dimethyl-4-[3-(3-trifluoromethylisoxazole-5-oxy)propoxy]phenyl]-5-(trifluoromethyl)-1,2,4-oxadiazole] |  |  |  | 0.031 (≈ 0.0687 µM) | 
32 | Cc1cc(Cl)c(OCCCOc2c(C)cc(-c3noc(C(F)(F)F)n3)cc2C)c(Cl)c1 [Compound 130, 3-[4-[3-[2,6-dichloro-4-methylphenoxyl]propoxy]-3,5-dimethylphenyl]-5-(trifluoromethyl)-1,2,4-oxadiazole] |  |  |  |  | 0.031 (≈ 0.0652 µM)
